This is an account of results in paper PMC11854450 (RSC Chemical Biology, 2025).

Assay in all cases: fluorogenic activity assay
Holding throughout (assay type): biochemical

The target of one test is active caspase-8 (Homo sapiens, UniProt Q14790). As to conditions: 1 h pre-incubation; PBS.
A further test addresses T1, activeCASP10 (Homo sapiens, UniProt Q92851).
T1 sequence (Q92851 220-415): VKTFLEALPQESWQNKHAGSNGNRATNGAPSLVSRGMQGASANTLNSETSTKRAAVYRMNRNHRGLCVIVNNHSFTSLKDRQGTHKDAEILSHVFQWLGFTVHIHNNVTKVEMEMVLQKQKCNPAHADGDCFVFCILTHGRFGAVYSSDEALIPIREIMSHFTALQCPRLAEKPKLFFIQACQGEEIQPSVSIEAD
T1 sequence (Q92851 416-521): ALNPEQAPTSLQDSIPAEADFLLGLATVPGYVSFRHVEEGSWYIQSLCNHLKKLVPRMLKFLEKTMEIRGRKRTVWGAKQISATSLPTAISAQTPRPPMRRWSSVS
As to conditions: 333 nM enzyme; 1 h pre-incubation; PBS with 333 mM citrate.

Another test deals with T2, activeCASP-3 (Homo sapiens, UniProt P42574).
T2 sequence (P42574 29-175): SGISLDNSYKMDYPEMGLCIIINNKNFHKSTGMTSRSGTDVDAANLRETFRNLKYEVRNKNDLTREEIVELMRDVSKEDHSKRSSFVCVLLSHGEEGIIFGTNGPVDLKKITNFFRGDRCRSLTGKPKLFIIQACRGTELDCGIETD
T2 sequence (P42574 176-277): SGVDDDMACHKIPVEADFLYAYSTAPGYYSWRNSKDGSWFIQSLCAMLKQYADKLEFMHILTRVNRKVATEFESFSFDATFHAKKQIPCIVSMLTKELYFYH
The conditions noted are these: 0.3 μM enzyme; 1 h pre-incubation; PBS.

Chain of active caspase-8 (Q14790 217-374): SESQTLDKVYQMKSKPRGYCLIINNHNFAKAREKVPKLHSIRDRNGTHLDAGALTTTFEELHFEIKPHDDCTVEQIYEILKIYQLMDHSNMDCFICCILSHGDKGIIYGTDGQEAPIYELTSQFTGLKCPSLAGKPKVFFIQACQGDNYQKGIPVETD
Chain of active caspase-8 (Q14790 385-479): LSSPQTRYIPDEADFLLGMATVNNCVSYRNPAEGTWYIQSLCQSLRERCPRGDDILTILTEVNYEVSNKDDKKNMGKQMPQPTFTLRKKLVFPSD

As to `NS(=O)(=O)C#Cc1ccccc1` [PFTμ, pifithrin-μ], the Relative activity entry on active caspase-8 is “PFTμ also significantly inhibited active caspase-3 and active caspase-8”; on activeCASP10 it was “we found that PFTμ inhibited both proteoforms to some degree”; on activeCASP-3, “PFTμ also significantly inhibited active caspase-3 and active caspase-8”.
